Measured values reported in patent US20130210852A1, “METHODS FOR TREATING INFECTION” (priority 2010, published 2013).
Converted amounts (≈) assume the structure as drawn. Where two headings read alike, the source gives them in different places.

Tests used:
[1] = system: EAEC strain O42 adherence to HCT-8 cells; format: cell-based, human; settings: 24 h pretreatment with 64 mg (FIG. 2: 64 μg/ml), EAEC 3 h
[2] = system: EAEC strain O42 adherence to A549 cells; format: cell-based, human; settings: 24 h pretreatment with 64 mg (FIG. 2: 64 μg/ml), EAEC 3 h
[3] = system: EAEC isolates; assay: Isolate viability after rifaximin exposure, EAEC
[4] = system: C difficile; settings: cited from earlier work
[5] = system: HCT-8 cells infected with rifaximin-exposed EAEC strains; assay: HCT-8 cell culture assay for interleukin-8 (IL-8) release; format: cell-based, human
Description: The human intestinal adenocarcinoma cell line, HCT-8, was used to study inflammatory modulators as previously published (Huang, 2004 #15). Monolayers of HCT-8 cells (ATCC CCL-244; American Type Culture Collection, Rockville, Md.) were grown in 24-well culture plates (Corning Costar, Corning, N.Y.) in an RPMI 1640 medium (Sigma-Aldrich Co, St Louis, Mo.) supplemented with 100 U/mL of penicillin, 100 μg/mL of streptomycin, and 0.25 μg/mL of amphotericin B. They were maintained in a medium supplemented with 10% fetal bovine serum (HyClone, Logan, Utah) and grown until approximately 4×10^5 cells/well confluence.
HCT-8 cells were infected with EAEC strains recovered from MacConkey agar in triplicate at a 100:1 ratio in an antibiotic- and serum-free RPMI 1640 medium. Cells were incubated for 3 hours in a humidified chamber at 37° C. in an atmosphere containing 5% CO2, after which supernatants were collected. The supernatant concentration of IL-8 in each well was determined by using a commercially available enzyme-linked immunosorbent assay kit for human IL-8 (R&D Systems, Minneapolis, Minn.). All samples were tested twice, and the average value was reported.

[6] = system: MMP-9 in S sonnei isolate; assay: Matrix metalloproteinase-9 detection by gelatin zymography, S sonnei; format: cell-based, Shigella sonnei
Description: Matrix Metalloproteinase-9 Detection Expression of matrix metalloproteinase-9 (MMP-9) was analyzed using gelatin zymography in all viable EAEC and S. sonnei isolates growing on MacConkey agar. Isolates were suspended in 1 mL of 0.1 M phosphate buffered saline (pH 7.2) and centrifuged at 1000 g for 10 minutes at 4° C. The supernatant was subjected to gelatin zymography to detect MMP-9 activity using a modified Heussen and Dowdle protocol (9). In summary, the supernatant was diluted 1:2 in a sample buffer (125 mM Tris-HCl, pH 6.8, 20% glycerol, 4% sodium dodecyl sulfate, 0.02% bromphenol blue), and 20 μL was loaded on to a 10% SDS-PAGE gel containing 1 mg/mL gelatin. Prestained standard proteins were used as molecular weight markers. After electrophoresis, gels were rinsed with incubation buffer (2.5% triton X-100, 50 mM Tris-HCl, pH 7.4, 0.02% Brij 35, 10 mM CaCl2, 2 μM ZnCl2) for 1 hour at room temperature to remove SDS. Gels were then incubated overnight at 37° C. and subsequently stained with Coomassie brilliant blue R-250 (Thermo Fisher Scientific, Inc, Rockford, Ill.). […] Matrix metalloproteinase-9 was identified among all gelatinolytic proteins by size.

[7] = system: EAEC strain O42 adherence to HeLa cells; format: cell-based, human; settings: 24 h pretreatment with 64 mg (FIG. 2: 64 μg/ml), EAEC 3 h
[8] = system: S sonnei isolate; assay: Isolate viability after rifaximin exposure, S sonnei; format: cell-based, Shigella sonnei
[9] = system: EAEC strain O42 adherence to HEp-2 cells; assay: HEp-2 cell attachment assay (microscopy after Wright-Giemsa staining); format: cell-based, human; settings: HEp-2 cells incubated 24 h with antibiotic, washed, then EAEC 3 h
[10] = system: ETEC strains; assay: Isolate viability after rifaximin exposure, ETEC
[11] = system: enterotoxigenic E coli strains; assay: MIC against rifaximin by agar dilution, ETEC isolates; format: cell-based; settings: Escherichia coli
Description: Five enterotoxigenic E coli strains, 2 enteroaggregative E coli strains, and 1 S sonnei isolate were included in the study. The isolates had been identified previously from patients with TD acquired in Guadalajara, Mexico, during the summer of 2004 (5). […] The susceptibility of all isolates to rifaximin was determined by agar dilution methodology following the recommendations of the Clinical and Laboratory Standards Institute.

[12] = system: C difficile; assay: Susceptibility testing of C difficile isolates (rifaximin agar dilution, rifampin E strips)
[13] = system: EAEC; settings: previously established in the applicant's laboratory; cited from earlier work
[14] = 201 isolates, Canada, 1992 to 2007

Q: For `CO[C@H]1/C=C/O[C@@]2(C)Oc3c(C)c(O)c4c(O)c(c5c(nc6cc(C)ccn65)c4c3C2=O)NC(=O)/C(C)=C\C=C\[C@H](C)[C@H](O)[C@@H](C)[C@@H](O)[C@@H](C)[C@H](OC(C)=O)[C@@H]1C` [Rifaximin, (2S,16Z,18E,20S,21S,22R,23R,24R,25S,26S,27S,28E)-5,6,21,23,25 Pentahydroxy-27-methoxy-2,4,11,16,20,22,24,26-octamethyl-2,7-(epoxypentadeca-(1,11,13)trienimino)benzofuro (4,5-e) pyrido(1,2,-a) benzimidazole-1,15(2H)-dione,25-acetate], which “EAEC adherence to HCT-8 cells” value [1] is on record?
A: Slightly fewer bacteria adhered to rifaximin-pretreated HCT-8 cells, but this difference was not significant

Q: And the “EAEC adherence to A549 cells” value [2]?
A: significantly reduced

Q: And the “EAEC viability after exposure” value ([3]; rifaximin 8 mg/L for 24 hours)?
A: viable

Q: What about the “EAEC viability after exposure” value ([3]; rifaximin 8, 32, and 64 mg/L at 4, 8, and 18 hours) of the same compound?
A: viable

Q: What about the “EAEC viability after exposure” value ([3]; rifaximin 32 and 64 mg/L for 24 hours) of the same compound?
A: no viable isolates were recovered

Q: What about the “isolates with MIC values >2 μg/mL” value ([4]; 201 C difficile isolates) of the same compound?
A: 4%

Q: And the “MIC50 against C difficile” value [4, 14]?
A: 0.008 µg/mL (≈ 0.0102 µM)

Q: And the “MIC90 against C difficile” value [4, 14]?
A: 0.015 µg/mL (≈ 0.0191 µM)

Q: What about the “IL-8 production from HCT-8 cells infected with rifaximin-exposed EAEC” value (shortened to “IL-8 production”) ([5]; EAEC exposed to rifaximin 64 mg/L for 4 hours) of the same compound?
A: caused IL-8 production

Q: And the “IL-8 production” value ([5]; EAEC exposed to rifaximin 8 or 32 mg/L for 4 or 8 hours)?
A: elicited production of IL-8

Q: What about the “IL-8 production” value ([5]; all other time points and rifaximin concentrations) of the same compound?
A: Interleukin-8 was either undetected following HCT-8 infection with EAEC strains, or EAEC strains were not viable

Q: And the “IL-8 production” value ([5]; viable EAEC exposed to rifaximin 8, 32, or 64 mg/L for 18 hours or 8 mg/L for 24 hours)?
A: did not elicit IL-8 production

Q: And the “MMP-9 in the S sonnei isolate” value ([6]; other time points and rifaximin concentrations)?
A: either undetectable or the isolate was not viable

Q: What about the “MMP-9 in the S sonnei isolate” value ([6]; rifaximin 8 mg/L for 4 hours) of the same compound?
A: detectable

Q: And the “EAEC adherence to HeLa cells” value [7]?
A: significantly reduced

Q: What about the “S sonnei viability after exposure” value ([8]; rifaximin 8 mg/L for 4, 8, 18, and 24 hours) of the same compound?
A: viable

Q: What about the “S sonnei viability after exposure” value ([8]; rifaximin 32 or 64 mg/L at any time point) of the same compound?
A: not viable

Q: What about the “EAEC O42 adherence to HEp-2 cells (microscopy)” value [9] of the same compound?
A: greatly reduced

Q: And the “ETEC viability after exposure” value ([10]; rifaximin 8 mg/L, 24-hour exposure)?
A: viable

Q: What about the “ETEC viability after exposure” value ([10]; rifaximin 64 mg/L for 18 hours or 32 and 64 mg/L for 24 hours) of the same compound?
A: No ETEC isolates were viable

Q: What about the “ETEC viability after exposure” value ([10]; rifaximin 8, 32, and 64 mg/L for 4 and 8 hours, 8 and 32 mg/L for 18 hours) of the same compound?
A: viable

Q: What about the MIC ([11]; read-out: MIC, ETEC, 2 ETEC isolates) of the same compound?
A: 128 µg/mL (≈ 163 µM)

Q: What about the MIC ([11]; read-out: MIC, all ETEC and EAEC isolates, 5 ETEC and 2 EAEC isolates) of the same compound?
A: 64 to 128 µg/mL (≈ 81.4 to 163 µM)

Q: And the “MIC50 against C difficile” value ([12]; 359 isolates)?
A: <0.01 µg/mL

Q: And the “MIC90 against C difficile” value ([12]; 359 isolates)?
A: 0.25 µg/mL (≈ 0.318 µM)

Q: What about the “MIC50 against C difficile” value ([12]; 359 isolates, listed as rifaximin) of the same compound?
A: < 0.01 µg/mL

Q: What about the “Isolates resistant to rifaximin alone (n = 11), (%)” value (from here on “Isolates resistant … (%)”) ([12]; genotype A +, B +, BT +, tcdC-del +) of the same compound?
A: (0) %

Q: And the “Isolates resistant … (%)” value ([12]; genotype A +, B +, BT +, tcdC-del −)?
A: (18) %

Q: What about the “Isolates resistant … (%)” value ([12]; genotype A +, B +, BT −, tcdC-del +) of the same compound?
A: (9) %

Q: What about the “Isolates resistant … (%)” value ([12]; genotype A +, B +, BT −, tcdC-del −) of the same compound?
A: (55) %

Q: And the “Isolates resistant … (%)” value ([12]; genotype A −, B −, BT −, tcdC-del −)?
A: (18) %

Q: What about the “MIC50 for EAEC” value [13] of the same compound?
A: 64 µg/mL
